Source: patent US7033765B1, “Site-specific drug delivery” (Toronto Research Chemicals, Inc., priority 1997, dated 2006)
Values belong to the molecule of their own block, whether it stands above or below them.

How the values were obtained:
[1] = biological target: T1, Y401C Na+ channels (mutated rat skeletal muscle sodium channel protein μ1-2) (Rattus norvegicus, UniProt P15390, Y401C); test: Two-electrode voltage-clamp of Y401C Na+ channels expressed in Xenopus oocytes; type: cell-based
T1 construct: expressed in transfected cells; host or cells: Xenopus laevis oocytes (injected)

HH1 Na+ channels = biological target: T2, HH1 Na+ channels (Homo sapiens, UniProt Q14524); test: Two-electrode voltage-clamp of HH1 Na+ channels recorded in oocytes; type: cell-based
T2 construct: expressed in transfected cells; host or cells: Xenopus laevis oocytes (injected)
Experimental: (§1) Oocytes were removed from adult female Xenopus.laevis frogs (NASCO, Fort Atkinson, Wis.; XENOPUS, Ann Arbor, Mich.) that had been anesthetized by immersion for 10-25 minutes in a 0.25% solution of tricaine (Sigma Chemical Co., St. Louis, Mo.) in tap water. A 5-fold excess of Na^+ channel protein β subunits compared to α subunits minimized the altered gating properties of Na^+ channel proteins in oocytes. Injected oocytes were incubated at 22° C. for 24-48 hr prior to recording.
(§2) For oocyte recordings, whole-cell currents were recorded at room temperature (approximately 23° C.) using a two-electrode voltage-clamp with 3 M KCl in the pipette and a bath solution containing: 96 mM NaCl, 4 mM KCl, 1 mM MgCl2, 1 mM CaCl2 and 10 mM HEPES (pH=7.6). Electrode pipettes were fabricated from 1.2 mm outer diameter thin-walled borosilicate glass (TW120F-6, World Precision Instruments Inc., Sarasota, Fla.) pulled on a Sutter puller (model P-87). Pipette tips were broken to a diameter of approximately 0.1 mm and plugged with agar made with 3 M KCl for a final resistance of 1-4 MΩ. The circuitry of the amplifier compensated for electrode series resistance (Oocyte Clamp OC-725A, Warner Instruments Inc., Hampden, Conn., USA). Leak subtraction was accomplished using a P/8 protocol from a holding potential of −120 mV. Current was filtered at 2 kHz and digitized at 10 kHz using an IBM-compatible computer, a Warner analog-digital interface (model PP-50 Lab 1), and custom acquisition software. In order to minimize difficulties associated with voltage-clamping oocytes expressing large numbers of channel proteins, whole-cell recordings were limited to oocytes expressing less than 5 μAmps of peak current.
(§3) The desired concentrations of local channel protein anesthetic drugs in ND96 were introduced to the bath by perfusion with at least 30 mL (bath volume=0.6 mL). Total bath exchange took less than 3 minutes and the drugs were allowed to equilibrate with the oocytes for a minimum of 6 minutes prior to recording.
(§4) Current-voltage relationships were produced by stepping the membrane potential from −60 to +50 mV by increments of 5 mV from a holding potential of −80 mV. A repetition frequency of 0.2 Hz was used for such voltage families. Steady-state activation curves of whole-cell currents were calculated from the current-voltage relationships by scaling the peak currents by the net driving force (i.e., V−Erev) using the equation g=I/(V−Erev) where Erev=+45 to +60 mV. Steady-state fast-inactivation curves were constructed by normalizing the current recorded in test pulses to −10 mV following 50 msec prepulses to voltages ranging from −100 to −10 mV. A repetition frequency of 0.2 Hz was used for the steady-state inactivation protocol. Recovery from inactivation was assessed using a two-pulse protocol, in which identical depolarizing voltage pulses to −20 mV for 50 msec were applied to oocytes before (conditioning) and after (test) a variable duration repolarization to −80 mV (recovery potential). The peak current evoked by the second (test) depolarization was normalized to the amplitude of the first (conditioning) depolarization and represents the fraction of channel proteins that had recovered from inactivation during the interpulse recovery period.

[2] = biological target: T3, native heart Na+ channel proteins (Rattus norvegicus, UniProt P15389); test: Patch-clamp recording of native heart Na+ channels in isolated rat ventricular myocytes; type: cell-based
T3 construct: native heart Na^+ channel proteins in isolated rat ventricular myocytes; endogenous in cells; host or cells: isolated rat ventricular myocytes
Experimental: Similar recording methods were used with isolated rat ventricular myocytes using the patch-clamp recording technique.
(§5) Preliminary studies have been performed on four prototypes of the drug illustrated in FIG. 3. Studies using these drugs were performed on three distinct types of Na^+ channel proteins: skeletal muscle Na^+ channel proteins expressed in Xenopus sp. oocytes, native heart Na^+ channel proteins in isolated rat ventricular myocytes and mutated skeletal muscle Na^+ channel proteins (i.e., Y401C) in which the naturally occurring tyrosine at position 401 was replaced with cysteine, the residue naturally found in heart. Native heart Na^+ channel proteins and Y401C channel proteins are referred to as “heart-like” Na^+ channel proteins.

cardiac Na+ channels = test: DTT and Cd2+ test of C2 anchoring to the pore cysteine; type: cell-based
Source text: To determine the role of the cysteine in the pore of cardiac Na^+ channel proteins, effects of C2 on Na^+ channel proteins were examined in the presence of Cd^2+ and dithiothreitol (DTT). […] Thus, it appears that C2 is linked to the Na^+ channel protein via a disulfide bond.
Cd^2+ binds with very high affinity to free sulfhydryls but not disulfide linked sulfhydryls. To determine whether the cysteines are binding to the drug, after washout of the C2 from Na^+ channel proteins channel proteins, Cd^2+ was added. […] Following DTT application, C2 modified channel proteins restore their sensitivity to Cd^2+ and this restoration occurs simultaneous with the reversal of the local anesthetic effects.

Na+ channel proteins = test: Whole-cell Na+ current recordings with site-specific agents (channel type not stated); type: cell-based; conditions: for slow component of recovery from inactivation in modified channels: FIG. 8B
Experimental: as §2, §3, §4, §5

[3] = biological target: T4, skeletal muscle (rSkM1) Na+ channels (Rattus norvegicus, UniProt P15390); test: Two-electrode voltage-clamp of skeletal muscle (rSkM1) Na+ channels recorded in oocytes; type: cell-based
T4 construct: expressed in transfected cells; host or cells: Xenopus oocytes (injected)
Experimental: as §1
For oocyte recordings, whole-cell currents were recorded at room temperature (approximately 23° C.) using a two-electrode voltage-clamp with 3 M KCl in the pipette and a bath solution containing: 96 mM NaCl, 4 mM KCl, 1 mM MgCl2, 1 mM CaCl2 and 10 mM HEPES (pH=7.6). Electrode pipettes were fabricated from 1.2 mm outer diameter thin-walled borosilicate glass (TW120F-6, World Precision Instruments Inc., Sarasota, Fla.) pulled on a Sutter puller (model P-87). Pipette tips were broken to a diameter of approximately 0.1 mm and plugged with agar made with 3 M KCl for a final resistance of 1-4 MΩ. The circuitry of the amplifier compensated for electrode series resistance (Oocyte Clamp OC-725A, Warner Instruments Inc., Hampden, Conn., USA). […]
as §4, with “A repetition frequency of 0.2 Hz was used for such voltage families.” left out, “A repetition frequency of 0.2 Hz was used for the steady-state inactivation protocol.” left out, “The peak current evoked by the second (test) depolarization was normalized to the amplitude of the first (conditioning) depolarization and represents the fraction of channel proteins that had recovered from inactivation during the interpulse recovery period.” left out

[4] = during application of 500 μM C2
[5] = repetitive depolarization to −10 mV at 10 Hz, 30 μM lidocaine
[6] = with 30 μM lidocaine, Y401C channels
[7] = with 30 μM lidocaine, HH1 channels

T2 sequence (Q14524 whole entry): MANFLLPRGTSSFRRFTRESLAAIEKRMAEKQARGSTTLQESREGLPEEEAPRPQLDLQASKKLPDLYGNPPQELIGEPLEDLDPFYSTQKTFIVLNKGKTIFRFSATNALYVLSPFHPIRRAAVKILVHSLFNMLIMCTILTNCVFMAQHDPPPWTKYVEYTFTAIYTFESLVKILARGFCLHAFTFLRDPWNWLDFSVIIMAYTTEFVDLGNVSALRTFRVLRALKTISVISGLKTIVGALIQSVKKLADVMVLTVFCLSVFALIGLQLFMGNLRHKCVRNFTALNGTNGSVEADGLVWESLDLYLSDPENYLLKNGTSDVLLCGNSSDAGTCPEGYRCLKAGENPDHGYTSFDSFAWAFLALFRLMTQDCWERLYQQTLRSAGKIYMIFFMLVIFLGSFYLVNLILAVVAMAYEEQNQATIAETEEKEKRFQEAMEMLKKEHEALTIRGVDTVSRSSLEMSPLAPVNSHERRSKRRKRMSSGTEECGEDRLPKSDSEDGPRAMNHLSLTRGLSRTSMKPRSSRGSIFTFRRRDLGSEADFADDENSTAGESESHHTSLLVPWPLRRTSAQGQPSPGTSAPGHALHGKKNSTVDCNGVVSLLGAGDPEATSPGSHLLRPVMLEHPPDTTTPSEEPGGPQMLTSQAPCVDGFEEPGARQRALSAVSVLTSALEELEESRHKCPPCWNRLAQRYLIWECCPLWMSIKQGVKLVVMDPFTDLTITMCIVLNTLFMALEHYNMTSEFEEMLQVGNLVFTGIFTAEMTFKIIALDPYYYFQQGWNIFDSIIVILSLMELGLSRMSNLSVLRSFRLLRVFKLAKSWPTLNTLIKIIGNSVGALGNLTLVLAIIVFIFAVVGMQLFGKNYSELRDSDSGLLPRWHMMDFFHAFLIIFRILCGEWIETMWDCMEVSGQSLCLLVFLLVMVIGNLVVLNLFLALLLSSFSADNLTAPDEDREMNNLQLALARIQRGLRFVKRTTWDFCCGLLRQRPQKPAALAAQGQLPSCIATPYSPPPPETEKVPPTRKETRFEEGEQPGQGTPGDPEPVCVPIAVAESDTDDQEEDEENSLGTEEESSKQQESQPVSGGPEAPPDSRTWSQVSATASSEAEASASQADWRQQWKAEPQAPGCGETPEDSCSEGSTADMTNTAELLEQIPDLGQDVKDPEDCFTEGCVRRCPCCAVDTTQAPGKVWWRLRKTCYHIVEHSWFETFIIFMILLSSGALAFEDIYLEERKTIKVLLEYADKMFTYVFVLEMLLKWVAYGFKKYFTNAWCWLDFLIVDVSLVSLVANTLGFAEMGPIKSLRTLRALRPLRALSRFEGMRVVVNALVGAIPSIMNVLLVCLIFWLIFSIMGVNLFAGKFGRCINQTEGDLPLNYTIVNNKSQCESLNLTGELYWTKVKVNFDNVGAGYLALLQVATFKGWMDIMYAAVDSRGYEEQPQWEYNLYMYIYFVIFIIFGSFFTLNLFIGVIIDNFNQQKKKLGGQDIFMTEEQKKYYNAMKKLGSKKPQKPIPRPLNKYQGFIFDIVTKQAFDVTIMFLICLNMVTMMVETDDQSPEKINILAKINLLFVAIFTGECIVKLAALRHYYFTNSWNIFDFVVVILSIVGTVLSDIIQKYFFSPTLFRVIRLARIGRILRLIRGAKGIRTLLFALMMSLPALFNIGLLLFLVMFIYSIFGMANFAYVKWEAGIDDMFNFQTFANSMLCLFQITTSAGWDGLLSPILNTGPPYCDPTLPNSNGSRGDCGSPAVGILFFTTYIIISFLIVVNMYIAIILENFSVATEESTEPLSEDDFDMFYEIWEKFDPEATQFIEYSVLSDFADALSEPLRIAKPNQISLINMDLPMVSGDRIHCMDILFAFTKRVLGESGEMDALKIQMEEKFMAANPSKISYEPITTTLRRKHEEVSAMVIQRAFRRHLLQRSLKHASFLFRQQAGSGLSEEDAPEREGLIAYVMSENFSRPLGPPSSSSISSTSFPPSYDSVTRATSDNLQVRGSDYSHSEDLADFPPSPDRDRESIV
T4 sequence (P15390 whole entry): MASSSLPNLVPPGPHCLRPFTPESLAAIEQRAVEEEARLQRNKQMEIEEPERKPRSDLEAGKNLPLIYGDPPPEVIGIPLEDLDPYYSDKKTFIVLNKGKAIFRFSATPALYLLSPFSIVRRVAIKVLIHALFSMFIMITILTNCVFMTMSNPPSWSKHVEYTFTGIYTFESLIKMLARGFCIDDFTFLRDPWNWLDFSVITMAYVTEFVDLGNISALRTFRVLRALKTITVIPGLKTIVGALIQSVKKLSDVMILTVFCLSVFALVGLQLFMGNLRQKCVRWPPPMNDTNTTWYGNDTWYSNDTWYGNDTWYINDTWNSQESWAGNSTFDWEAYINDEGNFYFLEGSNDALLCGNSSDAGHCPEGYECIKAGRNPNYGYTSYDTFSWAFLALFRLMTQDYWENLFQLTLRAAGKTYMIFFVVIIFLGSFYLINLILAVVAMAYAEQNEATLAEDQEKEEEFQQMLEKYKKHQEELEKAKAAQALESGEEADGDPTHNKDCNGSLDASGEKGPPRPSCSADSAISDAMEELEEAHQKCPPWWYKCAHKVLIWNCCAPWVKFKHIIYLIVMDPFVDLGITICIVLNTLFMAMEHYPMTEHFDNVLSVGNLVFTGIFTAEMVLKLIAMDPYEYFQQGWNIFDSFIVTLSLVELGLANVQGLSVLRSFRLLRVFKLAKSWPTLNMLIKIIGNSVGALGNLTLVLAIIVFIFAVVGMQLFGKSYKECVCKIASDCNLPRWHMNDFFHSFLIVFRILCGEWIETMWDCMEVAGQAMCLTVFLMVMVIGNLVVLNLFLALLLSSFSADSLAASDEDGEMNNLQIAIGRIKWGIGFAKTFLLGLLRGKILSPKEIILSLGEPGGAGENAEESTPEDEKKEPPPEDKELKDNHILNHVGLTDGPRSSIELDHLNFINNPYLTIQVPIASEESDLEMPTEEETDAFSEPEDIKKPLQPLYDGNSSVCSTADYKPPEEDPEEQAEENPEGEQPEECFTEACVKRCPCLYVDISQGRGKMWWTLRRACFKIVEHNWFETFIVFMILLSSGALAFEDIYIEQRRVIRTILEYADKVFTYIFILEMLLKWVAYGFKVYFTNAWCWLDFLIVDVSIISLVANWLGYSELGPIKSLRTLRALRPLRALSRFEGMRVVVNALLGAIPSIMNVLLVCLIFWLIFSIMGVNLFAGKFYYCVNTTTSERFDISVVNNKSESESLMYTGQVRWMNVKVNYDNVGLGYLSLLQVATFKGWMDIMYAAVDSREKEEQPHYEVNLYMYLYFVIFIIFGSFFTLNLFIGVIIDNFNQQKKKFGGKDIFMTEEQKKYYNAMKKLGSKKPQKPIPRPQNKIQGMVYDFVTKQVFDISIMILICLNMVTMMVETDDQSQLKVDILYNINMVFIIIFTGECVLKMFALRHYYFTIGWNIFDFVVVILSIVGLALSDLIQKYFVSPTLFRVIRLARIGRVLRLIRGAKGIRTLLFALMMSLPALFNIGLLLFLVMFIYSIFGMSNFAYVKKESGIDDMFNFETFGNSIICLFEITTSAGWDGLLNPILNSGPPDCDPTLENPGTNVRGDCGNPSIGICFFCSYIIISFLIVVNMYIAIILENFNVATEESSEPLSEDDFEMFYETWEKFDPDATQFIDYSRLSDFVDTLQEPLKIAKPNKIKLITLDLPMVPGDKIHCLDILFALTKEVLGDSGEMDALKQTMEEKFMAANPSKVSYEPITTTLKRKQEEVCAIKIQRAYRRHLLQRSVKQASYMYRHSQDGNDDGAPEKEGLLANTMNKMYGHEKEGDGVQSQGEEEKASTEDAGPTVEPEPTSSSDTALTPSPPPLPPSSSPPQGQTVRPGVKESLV
T4 sequence (Q00954 19-218 partner): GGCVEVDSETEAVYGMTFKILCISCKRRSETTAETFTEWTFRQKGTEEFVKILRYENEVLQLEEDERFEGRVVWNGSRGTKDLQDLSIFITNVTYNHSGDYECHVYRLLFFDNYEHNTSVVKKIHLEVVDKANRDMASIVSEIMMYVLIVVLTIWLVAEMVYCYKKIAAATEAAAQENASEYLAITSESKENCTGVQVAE
T1 sequence (P15390 whole entry Y401C): as the sequence (P15390 whole entry) above, with Y401C counted along it
T1 sequence (Q00954 19-218 partner): as the sequence (Q00954 19-218 partner) above

reversibility of effects on washout ([1]; Y401C channels): inability to wash out
time constant for recovery from inactivation ([1]; after C2 application (washout)): 40.4 ms
time constant for recovery from inactivation [1, 4]: 39.0 ms
time constant for recovery from inactivation (HH1 Na+ channels; after the application of C2 (washout)): 66 ms
time constant for recovery from inactivation (HH1 Na+ channels; [4]): 45 ms
reversibility of binding on washout [2]: irreversible
melting point: 112 to 113 °C
effect of DTT on the irreversible binding after washout (cardiac Na+ channels; presence of DTT): totally inhibited
time constant for recovery from inactivation ([3]; after C2 washout): 13.7 ms
time constant for recovery from inactivation ([3]; in the presence of 500 μM C2): 56.7 ms
reversibility on washout ([3]; skeletal tissue): washed out
SMILES: CS(=O)(=O)SCCOC(=O)c1ccc(N)cc1 [Formula C2, 4-(4-aminophenyl)-4-oxo-3-oxabutyl methanethiosulfonate]
reversal of the current decrease by DTT (cardiac Na+ channels; 10 mM DTT after C2 washout): completely reversed
block of Na+ current by μM Cd2+ after washout of the agent (cardiac Na+ channels; Cd2+ added after C2 washout): no longer blocked
change of whole-cell currents (cardiac Na+ channels; following C2 washout (FIG. 7A)): decreased
use-dependence of Na+ channel current inhibition (Na+ channel proteins): very little use-dependent block
recovery from inactivation (Na+ channel proteins; 100 μM to 1 mM): slowing
steady-state inactivation curve (Na+ channel proteins; 100 μM to 1 mM): leftward shifts
whole-cell Na+ current (Na+ channel proteins; 100 μM to 1 mM): decreases
whole-cell Na+ current decay following channel activation (Na+ channel proteins; 100 μM to 1 mM): enhanced rates
shift of the sensitivity of the channels to block by lidocaine (Na+ channel proteins; C2 anchoring, FIG. 9): nearly two orders of magnitude
slow component of recovery from inactivation in modified channels (Na+ channel proteins): not observed

melting point: 85 to 86 °C
SMILES: CS(=O)(=O)SCCCCCCOC(=O)c1ccc(N)cc1 [Formula C6, 8-(4-aminophenyl)-8-oxo-7-oxaoctyl methanethiosulfonate]
potency relative to C2 (Na+ channel proteins): far more potent than C2

melting point: 73 to 74 °C
SMILES: CS(=O)(=O)SCCCCCCCCCCOC(=O)c1ccc(N)cc1 [Formula C10, 12-(4-aminophenyl)-12-oxo-11-oxadodecyl methanethiosulfonate]

The next lines start with the molecule.

SMILES: CCOC(=O)c1ccc(N)cc1 [benzocaine, reference compound]
slow component of recovery from inactivation in modified channels (Na+ channel proteins): not observed

SMILES: CCN(CC)CC(=O)Nc1c(C)cccc1C [lidocaine, reference compound]
use-dependent block [1, 5]: use-dependent block
tfast, first rapid phase of recovery from inactivation [1, 6]: 5.0 ms
tslow, second slow component of recovery from inactivation [1, 6]: 365 ms
use-dependent block (HH1 Na+ channels; [5]): use-dependent block
tfast, first rapid phase of recovery from inactivation (HH1 Na+ channels; [7]): 16.11 ms
tslow, second slow component of recovery from inactivation (HH1 Na+ channels; [7]): 763 ms

SMILES: Cc1cccc(C)c1NC(=O)CNCCSS(C)(=O)=O [Formula T2, 1-(2,6-dimethylphenyl)-2,8,8-trioxo-1,4-diaza-7,8-dithianonane]
use-dependence of Na+ channel current inhibition (Na+ channel proteins): use-dependent
